≈ marks a conversion by molar mass, not a printed value. Bounds are passed on as bounds.

Assay [1] deals with Enterobacter cloacae AG290. Put plainly: MIC by broth microdilution, Enterobacter cloacae. As to conditions: strain AG290 Enterobacter cloacae. The format is cell-based.
A further assay deals with M. smegmatis SZ380. Put plainly: MIC by broth microdilution, M. smegmatis. As to conditions: strain SZ380 Mycobacterium smegmatis.
The test system of assay [2] is Acinetobacter baumannii pittii AG225. As to the kind of experiment: MIC by broth microdilution, Acinetobacter baumannii. It is filed as cell-based. Particulars: strain AG225 Acinetobacter baumannii pittii. Background: Broth dilution looks for growth in wells or tubes with falling amounts of substance.
Assay [3] relates to E coli carrying specific resistance determinants. Put plainly: MIC by broth microdilution, E coli carrying specific resistance determinants. It is filed as cell-based. As to conditions: for MIC AG037 E. coli APH(3′)-III: engineered strain AG037 APH(3′)-III; for MIC pH421 E. coli APH(3′)-I: engineered strain pH421 APH(3′)-I; for MIC pH422 E. coli APH(3′)-II: engineered strain pH422 APH(3′)-II; for MIC pH423 E. coli APH(3′)-VI: engineered strain pH423 APH(3′)-VI.

Assay [4] has as its system Klebsiella pneumonia AG215. As to the kind of experiment: MIC by broth microdilution, Klebsiella pneumonia. The format is cell-based. Particulars: strain AG215 Klebsiella pneumonia.
For a further assay, the system named is E coli wild type. Put plainly: MIC by broth microdilution, wild type E coli. Particulars: for MIC AG160 E. coli WT: clinical isolate AG160 WT; for MIC AG160 E. coli WT / MIC pH430 E. coli WT: Table 2 (Example 4); for MIC pH430 E. coli WT: engineered strain pH430 WT; for MIC AG212 E. coli: strain AG212 E. coli (ATCC25922); for MIC50 E coli BM13 (AG06) wt: Table 2A (Example 2); for MIC50 E coli pH430 WT: Table 2B (Example 2); for MIC50 E coli AG01: strain AG01; for MIC50 E coli AG03: strain AG03; for MIC50 E coli AG55: strain AG55. It is filed as cell-based.

The test system of the next assay is P aeruginosa. Put plainly: MIC by broth microdilution, P aeruginosa isolates. It is filed as cell-based, Pseudomonas aeruginosa. Particulars: for MIC AG220 P. aerugin: strain AG220 Pseudomonas aeruginosa ATCC27853; for MIC50 P aeruginosa AG31: strain AG31; for MIC50 P aeruginosa AG32: strain AG32; for MIC50 P aeruginosa AG33: strain AG33; for MIC50 P aeruginosa AG86: strain AG86.

The next assay relates to MRSA. As to the kind of experiment: MIC by broth microdilution, MRSA isolates. The format is cell-based. Particulars: for MIC50 MRSA AG38: strain AG38; for MIC50 MRSA AG39: strain AG39; for MIC50 MRSA AG42: strain AG42; for MIC50 MRSA AG44: strain AG44.

Take `CCC[C@@H]1C(CO)O[C@H](O[C@@H]2C(N)C[C@@H](N)C(O)[C@H]2O[C@@H]2O[C@H](CO)[C@H](O[C@H]3C[C@@H](CN)[C@@H](O)C(O)C3N)C2O)[C@@H](N)C1O` (some centres unmarked) [Compound 116]: the “MIC AG290 E. cloacae” value in assay [1] amounted to 1 mg/L (≈ 1.56 µM). For the same molecule, the “MIC SZ380 M. smegmatis” value against M. smegmatis SZ380 was determined as 1 mg/L (≈ 1.56 µM). The “MIC AG225 A. baumannii” value in assay [2] is 2 mg/L (≈ 3.13 µM). Moreover, in assay [3] (clinical isolate AG163 APH(3′)-I, Table 2 (Example 4)), the “MIC AG163 E. coli APH(3′)-I” value was more than 64 mg/L. For the same molecule, the “MIC AG166 E. coli APH(3′)-II” value in assay [3] (clinical isolate AG166 APH(3′)-II, Table 2 (Example 4)) was in the range of 2 to 4 mg/L. In addition, in assay [3] (Table 2 (Example 4)), the “MIC AG037 E. coli APH(3′)-III” value was more than 64 mg/L, the “MIC pH421 E. coli APH(3′)-I” value is reported as more than 32 μg/ml, the “MIC pH422 E. coli APH(3′)-II” value worked out at 0.5 μg/ml and the “MIC pH423 E. coli APH(3′)-VI” value is on record as 1 μg/ml. Further, the “MIC AG215 K. pneumon” value in assay [4] was determined as 1 mg/L (≈ 1.56 µM). In the assay with E coli wild type, the “MIC AG160 E. coli WT” value came to 1 mg/L (≈ 1.56 µM), the “MIC pH430 E. coli WT” value is listed as 0.5 μg/ml and the “MIC AG212 E. coli” value was 2 mg/L (≈ 3.13 µM). The “MIC AG220 P. aerugin” value in the assay with P aeruginosa worked out at 4 mg/L (≈ 6.25 µM).

With `CCCC(O)C1OC(OC2C(N)CC(N)C(O)C2OC2OC(CO)C(OC3OC(CN)C(O)C(O)C3N)C2O)C(N)C(O)C1O` (centres unmarked) [Compound 142], the “MIC AG290 E. cloacae” value in assay [1] is 1 mg/L (≈ 1.52 µM). Moreover, in the assay on MRSA (Table 1 (Example 2)), the “MIC50 MRSA AG38” value stood at 4 mg/L (≈ 6.08 µM), the “MIC50 MRSA AG39” value is more than 128 mg/L, the “MIC50 MRSA AG42” value is more than 128 mg/L and the “MIC50 MRSA AG44” value worked out at 2 mg/L (≈ 3.04 µM). Moreover, the “MIC SZ380 M. smegmatis” value with M. smegmatis SZ380 is 0.5 mg/L (≈ 0.76 µM). In addition, the “MIC AG225 A. baumannii” value in assay [2] was determined as 2 mg/L (≈ 3.04 µM). For the same molecule, in assay [3] (Table 2B (Example 2)), the “MIC50 E coli AG036 ANT(4′,4″)” value lay in the range of 32 to 64 mg/L, the “MIC50 E coli AG037 APH(3′)-III” value was more than 32 mg/L, the “MIC50 E coli AG103 armA” value is 1 mg/L (≈ 1.52 µM) and the “MIC50 E coli pH421 APH(3′)-I” value is more than 32 μg/ml. In addition, in assay [3] (Table 2B (Example 2)), the “MIC50 E coli pH422 APH(3′)-II” value is more than 32 μg/ml, the “MIC50 E coli pH423 APH(3)-VI” value is more than 32 μg/ml and the “MIC50 E coli pH432 ANT(4′)” value came to 1 μg/ml. The “MIC50 E coli pH414 AAC(6′)-I” value in assay [3] (pH414 AAC(6′)-I, Table 2B (Example 2)) was found to be 1 μg/ml. In addition, in assay [3] (pH415 AAC(6′)-II, Table 2B (Example 2)), the “MIC50 E coli pH415 AAC(6′)-II” value was 1 μg/ml. In addition, the “MIC AG215 K. pneumon” value in assay [4] turned out to be 1 mg/L (≈ 1.52 µM). In the assay with E coli wild type, the “MIC50 E coli BM13 (AG06) wt” value was 1 mg/L (≈ 1.52 µM), the “MIC50 E coli pH430 WT” value was 1 μg/ml and the “MIC AG212 E. coli” value turned out to be 2 mg/L (≈ 3.04 µM). In the assay with E coli wild type (Table 1 (Example 2)), the “MIC50 E coli AG01” value is 8 mg/L (≈ 12.2 µM), the “MIC50 E coli AG03” value came to 8 mg/L (≈ 12.2 µM) and the “MIC50 E coli AG55” value was 8 mg/L (≈ 12.2 µM). Also, in the assay with P aeruginosa (Table 1 (Example 2)), the “MIC50 P aeruginosa AG31” value was more than 128 mg/L, the “MIC50 P aeruginosa AG32” value was more than 128 mg/L, the “MIC50 P aeruginosa AG33” value is more than 128 mg/L and the “MIC50 P aeruginosa AG86” value is more than 128 mg/L. In the assay with P aeruginosa, the “MIC AG220 P. aerugin” value is more than 32 mg/L.

For the molecule `CCCC(O)C1OC(OC2C(N)CC(N)C(O)C2OC2OC(CO)C(OC3OC(CN)C(O)C(O)C3N)C2O)C(N)C(O)C1O` (centres unmarked) [Compound 143], the “MIC AG290 E. cloacae” value in assay [1] was 4 to 8 mg/L. For the same molecule, in the assay with MRSA (Table 1 (Example 2)), the “MIC50 MRSA AG38” value was in the range of 32 to 64 mg/L, the “MIC50 MRSA AG39” value is more than 64 mg/L, the “MIC50 MRSA AG42” value was more than 64 mg/L and the “MIC50 MRSA AG44” value was 16 mg/L (≈ 24.3 µM). Also, the “MIC SZ380 M. smegmatis” value in the assay with M. smegmatis SZ380 was 16 mg/L (≈ 24.3 µM). Also, the “MIC AG225 A. baumannii” value in assay [2] was in the range of 4 to 8 mg/L. In addition, in assay [3] (Table 2B (Example 2)), the “MIC50 E coli AG036 ANT(4′,4″)” value was found to be 64 mg/L (≈ 97.3 µM), the “MIC50 E coli AG037 APH(3′)-III” value was more than 128 mg/L, the “MIC50 E coli AG103 armA” value lay within 16 to 32 mg/L and the “MIC50 E coli pH421 APH(3′)-I” value is on record as more than 128 μg/ml. In addition, in assay [3] (Table 2B (Example 2)), the “MIC50 E coli pH422 APH(3′)-II” value was more than 128 μg/ml, the “MIC50 E coli pH423 APH(3)-VI” value is 32-64 μg/ml and the “MIC50 E coli pH432 ANT(4′)” value is 4 μg/ml. The “MIC AG215 K. pneumon” value in assay [4] came to 4 mg/L (≈ 6.08 µM). In the assay with E coli wild type, the “MIC50 E coli BM13 (AG06) wt” value came out at 4 mg/L (≈ 6.08 µM), the “MIC50 E coli pH430 WT” value was determined as 4 μg/ml and the “MIC AG212 E. coli” value was 8 mg/L (≈ 12.2 µM). Moreover, in the assay with E coli wild type (Table 1 (Example 2)), the “MIC50 E coli AG01” value was 32 mg/L (≈ 48.7 µM), the “MIC50 E coli AG03” value amounted to 32 mg/L (≈ 48.7 µM) and the “MIC50 E coli AG55” value worked out at 32 mg/L (≈ 48.7 µM). Besides, in the assay on P aeruginosa (Table 1 (Example 2)), the “MIC50 P aeruginosa AG31” value was more than 64 mg/L, the “MIC50 P aeruginosa AG32” value was more than 64 mg/L, the “MIC50 P aeruginosa AG33” value was more than 64 mg/L and the “MIC50 P aeruginosa AG86” value is more than 64 mg/L. Also, the “MIC AG220 P. aerugin” value in the assay with P aeruginosa was more than 128 mg/L.

On to “5″-Deoxy-5″-ureido-paromomycin acetate salt [Compound 141]”, for which, in assay [1], the “MIC AG290 E. cloacae” value was 2 to 4 mg/L. Also, in the assay on MRSA (Table 1 (Example 1)), the “MIC50 MRSA AG38” value lay in the range of 4 to 8 mg/L, the “MIC50 MRSA AG39” value was more than 128 mg/L, the “MIC50 MRSA AG42” value was more than 128 mg/L and the “MIC50 MRSA AG44” value turned out to be 4 mg/L. In addition, the “MIC SZ380 M. smegmatis” value with M. smegmatis SZ380 was 2 mg/L. The “MIC AG225 A. baumannii” value in assay [2] turned out to be 4 mg/L. In addition, in assay [3] (Table 2 (Example 4)), the “MIC AG037 E. coli APH(3′)-III” value was more than 128 mg/L, the “MIC pH421 E. coli APH(3′)-I” value is more than 64 μg/ml, the “MIC pH422 E. coli APH(3′)-II” value is listed as more than 64 μg/ml and the “MIC pH423 E. coli APH(3′)-VI” value is on record as more than 64 μg/ml. Further, the “MIC AG215 K. pneumon” value in assay [4] worked out at 2 mg/L. The “MIC E coli AG006 wt” value in the assay on E coli wild type (AG006 wt, Table 2 (Example 1)) stood at 1 mg/L. Besides, in the assay on E coli wild type, the “MIC AG160 E. coli WT” value is 4 mg/L, the “MIC pH430 E. coli WT” value was 2-4 μg/ml and the “MIC AG212 E. coli” value turned out to be 4 mg/L. Also, in the assay with E coli wild type (Table 1 (Example 1)), the “MIC50 E coli AG01” value turned out to be 16 mg/L, the “MIC50 E coli AG03” value is 16 mg/L and the “MIC50 E coli AG55” value amounted to 16 mg/L. Also, in the assay with P aeruginosa (Table 1 (Example 1)), the “MIC50 P aeruginosa AG31” value was more than 128 mg/L, the “MIC50 P aeruginosa AG32” value was more than 128 mg/L, the “MIC50 P aeruginosa AG33” value is more than 128 mg/L and the “MIC50 P aeruginosa AG86” value is more than 128 mg/L. Also, in the assay with P aeruginosa, the “MIC AG220 P. aerugin” value was more than 64 mg/L.
